# Source: the supplement of paper PMC10307832
# Experiments:
# Experiment in all cases: relative viability (nuclei count vs DMSO), 5 days (fraction); higher = more cells survive
# NCI-H1915 = test system: NCI-H1915
# In short: (§1)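 After 5 days of treatment, lung cancer cells in 1536-well plates were fixed and stained in a single step (final 0.05% Triton X-100, 1% formaldehyde, 1 ug/ml Hoechst) and their nuclei counted on 4× images. Treatment had been applied by pin tool the day after seeding as one drug alone or as a fixed anchor-drug dose with five library-drug doses (not always all listed) in √10 steps. Relative viability is the nuclei count of treated wells divided by that of vehicle wells, and values are medians of duplicate plates.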
# NCI-H596 = test system: NCI-H596
# In short: as §1
# NCI-H2347 = test system: NCI-H2347
# In short: as §1
# LXF-289 = test system: LXF-289
# In short: as §1
# NCI-H2170 = test system: NCI-H2170
# In short: as §1
# NCI-H661 = test system: NCI-H661
# In short: as §1
# NCI-H3122 = test system: NCI-H3122
# In short: as §1
# SK-MES-1 = test system: SK-MES-1
# In short: as §1
# NCI-H1355 = test system: NCI-H1355
# In short: as §1
# NCI-H1755 = test system: NCI-H1755
# In short: as §1
# NCI-H1563 = test system: NCI-H1563
# In short: as §1
# NCI-H322M = test system: NCI-H322M
# In short: as §1
# NCI-H727 = test system: NCI-H727
# In short: as §1
# NCI-H460 = test system: NCI-H460
# In short: as §1
# NCI-H520 = test system: NCI-H520
# In short: as §1
# PC-14 = test system: PC-14
# In short: as §1
# NCI-H1651 = test system: NCI-H1651
# In short: as §1
# NCI-H650 = test system: NCI-H650
# In short: as §1
# RERF-LC-KJ = test system: RERF-LC-KJ
# In short: as §1
# NCI-H1792 = test system: NCI-H1792
# In short: as §1
# NCI-H441 = test system: NCI-H441
# In short: as §1
# LCLC-103H = test system: LCLC-103H
# In short: as §1
smiles,measurement,setting,value
CC(C)Oc1cc(Nc2nc(N[C@@H](C)c3ccc(F)cn3)ncc2Cl)n[nH]1 [AZ23] + CS(=O)(=O)CCNCc1ccc(-c2ccc3ncnc(Nc4ccc(OCc5cccc(F)c5)c(Cl)c4)c3c2)o1 [Lapatinib] (partner 2 µM),relative viability,NCI-H1915; first compound 0.01 µM,1.12
same,relative viability,NCI-H1915; first compound 0.03162 µM,0.972
same,relative viability,NCI-H1915; first compound 0.3162 µM,1.01
same,relative viability,NCI-H596; first compound 0.01 µM,1.03
same,relative viability,NCI-H596; first compound 0.03162 µM,1.11
same,relative viability,NCI-H596; first compound 0.3162 µM,1.03
same,relative viability,NCI-H2347; first compound 0.01 µM,1.05
same,relative viability,NCI-H2347; first compound 0.03162 µM,1.02
same,relative viability,NCI-H2347; first compound 0.3162 µM,1.02
same,relative viability,LXF-289; first compound 0.01 µM,1.01
same,relative viability,LXF-289; first compound 0.03162 µM,0.932
same,relative viability,LXF-289; first compound 0.3162 µM,0.884
same,relative viability,NCI-H2170; first compound 0.01 µM,0.267
same,relative viability,NCI-H2170; first compound 0.03162 µM,0.283
same,relative viability,NCI-H2170; first compound 0.3162 µM,0.27
same,relative viability,NCI-H661; first compound 0.01 µM,0.432
same,relative viability,NCI-H661; first compound 0.03162 µM,0.633
same,relative viability,NCI-H661; first compound 0.3162 µM,0.545
same,relative viability,NCI-H3122; first compound 0.01 µM,1.08
same,relative viability,NCI-H3122; first compound 0.03162 µM,1.01
same,relative viability,NCI-H3122; first compound 0.3162 µM,1.04
same,relative viability,SK-MES-1; first compound 0.01 µM,0.492
same,relative viability,SK-MES-1; first compound 0.03162 µM,0.484
same,relative viability,SK-MES-1; first compound 0.3162 µM,0.491
same,relative viability,NCI-H1355; first compound 0.01 µM,1.16
same,relative viability,NCI-H1355; first compound 0.03162 µM,1.07
same,relative viability,NCI-H1355; first compound 0.3162 µM,0.939
same,relative viability,NCI-H1755; first compound 0.01 µM,1.28
same,relative viability,NCI-H1755; first compound 0.03162 µM,1.16
same,relative viability,NCI-H1755; first compound 0.3162 µM,1.05
same,relative viability,NCI-H1563; first compound 0.01 µM,0.915
same,relative viability,NCI-H1563; first compound 0.03162 µM,1.06
same,relative viability,NCI-H1563; first compound 0.3162 µM,0.921
same,relative viability,NCI-H322M; first compound 0.01 µM,0.575
same,relative viability,NCI-H322M; first compound 0.03162 µM,0.621
same,relative viability,NCI-H322M; first compound 0.3162 µM,0.614
same,relative viability,NCI-H727; first compound 0.01 µM,0.788
same,relative viability,NCI-H727; first compound 0.03162 µM,0.945
same,relative viability,NCI-H727; first compound 0.3162 µM,0.751
same,relative viability,NCI-H460; first compound 0.01 µM,0.519
same,relative viability,NCI-H460; first compound 0.03162 µM,1.1
same,relative viability,NCI-H460; first compound 0.3162 µM,1.5
same,relative viability,NCI-H520; first compound 0.01 µM,0.842
same,relative viability,NCI-H520; first compound 0.03162 µM,0.964
same,relative viability,NCI-H520; first compound 0.3162 µM,0.8
same,relative viability,PC-14; first compound 0.01 µM,0.351
same,relative viability,PC-14; first compound 0.03162 µM,0.404
same,relative viability,PC-14; first compound 0.3162 µM,0.348
same,relative viability,NCI-H1651; first compound 0.01 µM,0.685
same,relative viability,NCI-H1651; first compound 0.03162 µM,0.921
same,relative viability,NCI-H1651; first compound 0.3162 µM,0.973
same,relative viability,NCI-H650; first compound 0.01 µM,0.649
same,relative viability,NCI-H650; first compound 0.03162 µM,1.19
same,relative viability,NCI-H650; first compound 0.3162 µM,0.849
same,relative viability,RERF-LC-KJ; first compound 0.01 µM,0.965
same,relative viability,RERF-LC-KJ; first compound 0.03162 µM,1.15
same,relative viability,RERF-LC-KJ; first compound 0.3162 µM,0.881
same,relative viability,NCI-H1792; first compound 0.01 µM,1.17
same,relative viability,NCI-H1792; first compound 0.03162 µM,1.13
same,relative viability,NCI-H1792; first compound 0.3162 µM,0.995
CC(C)Oc1cc(Nc2nc(N[C@@H](C)c3ccc(F)cn3)ncc2Cl)n[nH]1 [AZ23] + C[C@]1(O)C[C@@H](c2nc(-c3ccc4ccc(-c5ccccc5)nc4c3)c3c(N)nccn32)C1 [Linsitinib] (partner 1 µM),relative viability,NCI-H1915; first compound 0.01 µM,1.13
same,relative viability,NCI-H1915; first compound 0.03162 µM,1.1
same,relative viability,NCI-H1915; first compound 0.3162 µM,1.09
same,relative viability,NCI-H596; first compound 0.01 µM,1.09
same,relative viability,NCI-H596; first compound 0.03162 µM,1.18
same,relative viability,NCI-H596; first compound 0.3162 µM,1
same,relative viability,NCI-H2347; first compound 0.01 µM,1.03
same,relative viability,NCI-H2347; first compound 0.03162 µM,0.993
same,relative viability,NCI-H2347; first compound 0.3162 µM,0.926
same,relative viability,LXF-289; first compound 0.01 µM,1.13
same,relative viability,LXF-289; first compound 0.03162 µM,1.1
same,relative viability,LXF-289; first compound 0.3162 µM,0.941
same,relative viability,NCI-H661; first compound 0.01 µM,0.531
same,relative viability,NCI-H661; first compound 0.03162 µM,0.776
same,relative viability,NCI-H661; first compound 0.3162 µM,0.623
same,relative viability,NCI-H441; first compound 0.01 µM,0.608
same,relative viability,NCI-H441; first compound 0.03162 µM,0.622
same,relative viability,NCI-H441; first compound 0.3162 µM,0.591
same,relative viability,NCI-H3122; first compound 0.01 µM,1.01
same,relative viability,NCI-H3122; first compound 0.03162 µM,1.01
same,relative viability,NCI-H3122; first compound 0.3162 µM,1.06
same,relative viability,SK-MES-1; first compound 0.01 µM,1.09
same,relative viability,SK-MES-1; first compound 0.03162 µM,1.16
same,relative viability,SK-MES-1; first compound 0.3162 µM,1.12
same,relative viability,NCI-H1355; first compound 0.01 µM,0.909
same,relative viability,NCI-H1355; first compound 0.03162 µM,0.784
same,relative viability,NCI-H1355; first compound 0.3162 µM,0.724
same,relative viability,NCI-H1755; first compound 0.01 µM,1.13
same,relative viability,NCI-H1755; first compound 0.03162 µM,1.03
same,relative viability,NCI-H1755; first compound 0.3162 µM,1.06
same,relative viability,NCI-H1563; first compound 0.01 µM,1.14
same,relative viability,NCI-H1563; first compound 0.03162 µM,1.19
same,relative viability,NCI-H1563; first compound 0.3162 µM,1.08
same,relative viability,NCI-H322M; first compound 0.01 µM,0.919
same,relative viability,NCI-H322M; first compound 0.03162 µM,0.957
same,relative viability,NCI-H322M; first compound 0.3162 µM,1.13
same,relative viability,NCI-H727; first compound 0.01 µM,0.354
same,relative viability,NCI-H727; first compound 0.03162 µM,0.281
same,relative viability,NCI-H727; first compound 0.3162 µM,0.277
same,relative viability,NCI-H460; first compound 0.01 µM,0.366
same,relative viability,NCI-H460; first compound 0.03162 µM,0.933
same,relative viability,NCI-H460; first compound 0.3162 µM,0.851
same,relative viability,LCLC-103H; first compound 0.01 µM,1.07
same,relative viability,LCLC-103H; first compound 0.03162 µM,1.03
same,relative viability,LCLC-103H; first compound 0.3162 µM,1.15
same,relative viability,NCI-H520; first compound 0.01 µM,1.18
same,relative viability,NCI-H520; first compound 0.03162 µM,1.04
same,relative viability,NCI-H520; first compound 0.3162 µM,0.921
same,relative viability,PC-14; first compound 0.01 µM,0.946
same,relative viability,PC-14; first compound 0.03162 µM,1.16
same,relative viability,PC-14; first compound 0.3162 µM,1.03
same,relative viability,NCI-H1651; first compound 0.01 µM,0.691
same,relative viability,NCI-H1651; first compound 0.03162 µM,1
same,relative viability,NCI-H1651; first compound 0.3162 µM,1.18
same,relative viability,NCI-H650; first compound 0.01 µM,0.648
same,relative viability,NCI-H650; first compound 0.03162 µM,0.893
same,relative viability,NCI-H650; first compound 0.3162 µM,0.857
same,relative viability,RERF-LC-KJ; first compound 0.01 µM,0.833
same,relative viability,RERF-LC-KJ; first compound 0.03162 µM,0.992
same,relative viability,RERF-LC-KJ; first compound 0.3162 µM,0.987
same,relative viability,NCI-H1792; first compound 0.01 µM,0.565
same,relative viability,NCI-H1792; first compound 0.03162 µM,0.597
same,relative viability,NCI-H1792; first compound 0.3162 µM,0.61
